Test results as given in patent US20060128997A1, “New method for the preparation of 1,5-bis(4-hydroxy-3-metoxy-phenyl)-penta-1,4-dien-3-one and derivatives with antitumoral properties” (priority 2003, published 2006).
“Also recorded” adds a separate entry of the source.

Legend:
[1] = system: all cell lines (nine different types of human cancer); test: Antiproliferate test, sulforrodamina B essay, whole panel of cell lines; assay type: cell-based; conditions: for concentration from which cytostatic activity (growth inhibition) is presented: all cell lines
Experimental: (§1) Methodology utilized to perform the antitumoral tests:
(§2) Report of the Antiproliferate Test in Tumoral Human Cells with the Sulforrodamina B Essay
(§3) The cell lines used in the essays, described in the table 1, were maintained in recipients of 25 cm^2 (Nunc®), with 5 mL of culture medium RPMI 1640 supplemented with 5% bovine foetal serum (RPMI/SFB), at 37° C. in atmosphere of 5% of CO2 and 100% of humidity.
(§4) […] of cells in medium RPMI/SFB with 50 μg/mL of Gentamicin were inoculated in its respectives densities of inoculation, in plates of 96 compartments and incubated for 24 hours at 37° C. in atmosphere of 5% of CO2 and 100% of humidity.
(§5) After 24 hours, […] of the test substance were added in the following concentrations of 250; 25; 2.5; 0.2 μg/mL diluted in RPMI/SFB/gentamicin. In this moment the reading of one plate was performed for the determination of the T0 (cell control in the moment of the adding the samples). The other plates were incubated for 48 hours After this period the experiment was paused by adding the trichlorine acetic acid to further determine the protein content by means of […] essay with the sulforrodamina B.
(§6) The stocked solutions were developed by diluting the samples in dimethyl sulfoxide (DMSO) in the concentration of 0.1 g/mL. That solution was diluted by 400 times in RPMI/SFB/gentamicina to be added in the plates of 96 compartments being obtained so the a ideal concentration of DMSO (Skehan e cols. 1990).
(§7) At the end of the test, the plates of 96 compartments were centrifuged for 3 minutes at 2000 rpm, and they were fixed with 50 μL of a solution at 50% of trichloroacetic acid (TCA) at 4° C. To complete the cellular fixation, the plates were incubated for 1 hour at 4° C.
(§8) The plates were submitted to four consecutive washes with distillated water to remore the residues of TCA, medium, SFB and secondary metabolic and maintained at room temperature until the complete drying.
(§9) A coloration was performed by the adding of 50 μL SRB at 0.4% (weight/volume) diluted in acetic acid at 1%, and maintained at 4° C. for 30 minutes. Further, they were washed by 4 consecutive times with a solution of acetic acid 1%. The residue of the washing of the solution was removed and the plates were dried again at room temperature. The colorant linked to the cellular protein was diluted with a solution of Trizma Base (Sigma®) in concentration of […] and pH 10.5 for 5 minutes in ultrasonic bath. The spectrophotometric of absorbancy reading was performed in 560 nm in a micro plates lector (Labsystems Labsystems Multiskan® MCC/340).
(§10) The absorbancy averages were assessed having discounted its respective nulls and by means of the formula shown below was determined the growth inhibition (IC) of each tested sample.
(§11) If T≧T0 but <C, the drug was cytostatic and the formula used is 100×[(T−To)/(C−T0)]
(§12) If T<T0 the drug was cytotoxic and the formula used is […]
(§13) Considering that T is the absorbency average of the treated cell C is the cell control and T0 is the cell control in the addition day.
(§14) The obtained result was subtracted from 100% so obtaining the percentage of growth inhibition. The samples were considered actives since they presented growth inhibition dependant dose higher than 50% and selective lineage, that is, the preferential activity for only one type of tumoral cell or with cytostatic and/or killer cell effect well distinguished among the cell lines.
(§15) All the assays were performed in triplicates so that the presented results make reference to a representative experiment. The standard deflection from the average was always lower than 5%.

[2] = system: HT29 (Colon tumor); test: Antiproliferate test in tumoral human cells, sulforrodamina B essay; assay type: cell-based; conditions: HT-29
Experimental: as §1, §2, §3, §4
After 24 hours, […] of the test substance were added in the following concentrations of 250; 25; 2.5; 0.2 μg/mL diluted in RPMI/SFB/gentamicin. In this moment the reading of one plate was performed for the determination of the T0 (cell control in the moment of the adding the samples). […]
A coloration was performed by the adding of 50 μL SRB at 0.4% (weight/volume) diluted in acetic acid at 1%, and maintained at 4° C. for 30 minutes. […] The spectrophotometric of absorbancy reading was performed in 560 nm in a micro plates lector (Labsystems Labsystems Multiskan® MCC/340).
The absorbancy averages were assessed having discounted its respective nulls and by means of the formula shown below was determined the growth inhibition (IC) of each tested sample. […]

[3] = system: K-562 (Leukemia); test: as above; assay type: cell-based; conditions: K562
Experimental: as §1, §2, §3, §4, §5, §6, §7, §8, §9, §10, §11, §12, §13, §14, §15

[4] = system: 786-0 (Renal tumor); test: as above; assay type: cell-based
Experimental: as §1, §2, §3, §4, §5, §6, §7, §8, §9, §10, §11, §12, §13, §14, §15

[5] = system: NCIADR (Mamma tumor which expresses the phenotype resistance against multiple drugs); test: as above; assay type: cell-based
Experimental: as §1, §2, §3, §4, §5, §6, §7, §8, §9, §10, §11, §12, §13, §14, §15

[6] = system: HT-1080; conditions: literature values (Banskota, Kimoto); unit not given; cited from earlier work
[7] = system: Colon L5-26; conditions: literature values (Banskota, Kimoto); unit not given; cited from earlier work
[8] = system: OVCAR-3 (Ovary tumor); test: Antiproliferate test in tumoral human cells, sulforrodamina B essay; assay type: cell-based
Experimental: as §1, §2, §3, §4, §5, §6, §7, §8, §9, §10, §11, §12, §13, §14, §15

[9] = system: PC-3 (Prostate tumor); test: as above; assay type: cell-based; conditions: PC-03
Experimental: as §1, §2, §3, §4, §5, §6, §7, §8, §9, §10, §11, §12, §13, §14, §15

[10] = cited from earlier work

SMILES: COc1cc(C=CC(=O)C=Cc2ccc(OCC=C(C)C)c(OC)c2)ccc1OCC=C(C)C [HB6, 1,5-Bis[3-metoxy-4-(3-methyl-but-2-eniloxy)phenyl]-penta-1,4-dien-3-one]
- concentration from which cytostatic activity (growth inhibition) is presented [1]: ≥ 25 µg/mL
- selectivity for the studied cell lines, in words ([1]; panel of cell lines): cellular selectivity for HT-29 and 786-0 cell lines
- concentration with cytotoxic activity (cellular death) [2]: 250 µg/mL
- concentration with cytotoxic activity (cellular death) [3]: 250 µg/mL
- concentration with cytotoxic activity (cellular death) [4]: 250 µg/mL
- concentration with cytotoxic activity (cellular death) ([5]; NCIADR): 250 µg/mL

SMILES: CC(C)=CCc1cc(C=CC(=O)O)cc(CC=C(C)C)c1O [Compound 3, 3,5-diprenyl-4-hydroxycinnamic acid]
- Cytotoxicity HT-1080 [6]: 45.47
- Cytotoxicity Colon L5-26 [7]: 59.32

SMILES: COc1ccc(C=CC(=O)C=Cc2ccc(OC)c(OC)c2)cc1OC [HBM1, 1,5-Bis(3,4-dimetoxyphenyl)-penta-1,4-dien-3-one]
- concentration from which cytostatic activity (growth inhibition) is presented [1]: ≥ 0.25 µg/mL
- concentration with cytotoxic activity (cellular death) [8]: 250 µg/mL
- concentration with cytotoxic activity (cellular death) [9]: 250 µg/mL

SMILES: CC(C)=CCc1cc(C=CC(=O)O)cc2c1OC(C)(C)C(O)C2 (stereo not shown) [Compound 1, 3-hydroxy-2,2-dimethyl-8-prenylchromane-6-propenoic acid]
- Cytotoxicity HT-1080 [6]: 71.53
- Cytotoxicity Colon L5-26 [7]: 77.07

SMILES: COc1cccc2c1C(=O)c1c(O)c3c(c(O)c1C2=O)C[C@@](O)(C(=O)CO)C[C@@H]3O[C@H]1C[C@H](N)[C@H](O)[C@H](C)O1 [Doxorubicin, reference compound]
- growth inhibition of the Mama NCI-ADR cell line, in words ([5]; NCI-ADR, resistance against multiple drugs): does not inhibit the growth; also recorded: did not inhibit the growth
- toxicity, in words ([10]; in vivo): extremely toxic
- LD50 ([10]; species and route not given): 20 mg/kg
